Assay results: US20060264406A1, “Mono-lysine salts of azole compounds” (Eisai Co., Ltd., priority 2005, published 2006)
Counter-ions that a name gives are not always drawn.

Experiments:
Type in all cases: physicochemical
[1] = moisture uptake (weight change versus relative humidity); settings: 60% RH
Description: Weight change (y-axis) versus relative humidity (x-axis) is shown, wherein adsorption is shown by -∘-, and desorption by -∘-.
For instance, Comparative Example 1 has about 10% change in weight at 60% RH (FIG. 1), whereas Example 1 has about 2-2.5% change in weight at the same humidity level (FIG. 2). On average, the mono-lysine salt or solvate thereof has better stability over the bis-lysine form (FIG. 4).

[2] = aqueous solubility of the salts and solvates; settings: water
Description: The obtained solvate of the mono-lysine salt of ((2R,3R)-3-(4-(4-cyanophenyl)thiazol-2-yl)-2-(2,4-difluorophenyl)-1-(1H-1,2,4-triazol-1-yl)butan-2-yloxy)methyl dihydrogen phosphate is scaled up and fully characterized. Physical-chemical properties including solubility, stability, moisture uptake, compaction, etc., are evaluated and compared to the bis-lysine salt of Comparative Example 1.
Also, Example 1 retains a high aqueous solubility (>200 mg/mL) similar to that of the bis-lysine salt of Comparative Example 1.

[3] = physical stability under stressed storage conditions (area percent); settings: for degradation on storage: 2-week stability data

Q: For `C[C@@H](c1nc(-c2ccc(C#N)cc2)cs1)[C@@](Cn1cncn1)(OCOP(=O)(O)O)c1ccc(F)cc1F.NCCCC[C@H](N)C(=O)O.NCCCC[C@H](N)C(=O)O` [Comparative Example 1, Bis-lysine salt of (2R,3R)-3-[4-(4-cyanophenyl)thiazol-2-yl]-2-(2,4-difluorophenyl)-1-(1H-1,2,4-triazol-1-yl)-2-[(dihydrogenphosphonoxy)methoxy]butane, reference compound], which “change in weight (moisture uptake)” value [1] is on record?
A: about 10%

Q: What about the “change in weight (moisture uptake)” value ([1]; listed as bis-lysine monoethanolate) of the same molecule?
A: 10%

Q: For `C[C@@H](c1nc(-c2ccc(C#N)cc2)cs1)[C@@](Cn1cncn1)(OCOP(=O)(O)O)c1ccc(F)cc1F` [Example 1, ((2R,3R)-3-(4-(4-cyanophenyl)thiazol-2-yl)-2-(2,4-difluorophenyl)-1-(1H-1,2,4-triazol-1-yl)butan-2-yloxy)methyl dihydrogen phosphate mono-lysine salt ethanol solvate], which Solubility [2] is on record?
A: >200 mg/mL

Q: What about the solubility [2] of the same molecule?
A: > 200 mg/mL

Q: And the “change in weight (moisture uptake)” value [1]?
A: 2-2.5%

Q: What about the “weight change for adsorption” value [1] of the same molecule?
A: < 2.5%

Q: And the “weight change for desorption” value [1]?
A: < 5%

Q: What about the “change in weight (moisture uptake)” value ([1]; listed as mono-lysine monoethanolate) of the same molecule?
A: 2-3%

Q: And the degradation on storage ([3]; 40° C./75% RH (open and closed))?
A: minimal degradation

Q: And the degradation on storage ([3]; any other storage conditions)?
A: No degradation

Q: What about the “Area Percent (AP as phosphonoxoxymethyl ether derivative of ravuconazole)” value (from here on “Area Percent”) ([3]; 5° C., 1 Week) of the same molecule?
A: 98.47 Area Percent

Q: What about the “Area Percent” value ([3]; 5° C., 2 Weeks) of the same molecule?
A: 99.60 Area Percent

Q: What about the “Area Percent” value ([3]; 5° C., 5 Days) of the same molecule?
A: 99.59 Area Percent

Q: What about the “Area Percent” value ([3]; 25° C./60% RH (Closed), 1 Week) of the same molecule?
A: 99.66 Area Percent

Q: And the “Area Percent” value ([3]; 25° C./60% RH (Closed), 2 Weeks)?
A: 99.21 Area Percent

Q: And the “Area Percent” value ([3]; 25° C./60% RH (Closed), 5 Days)?
A: 99.59 Area Percent

Q: What about the “Area Percent” value ([3]; 25° C./60% RH (Open), 1 Week) of the same molecule?
A: 99.65 Area Percent

Q: What about the “Area Percent” value ([3]; 25° C./60% RH (Open), 2 Weeks) of the same molecule?
A: 99.42 Area Percent

Q: What about the “Area Percent” value ([3]; 25° C./60% RH (Open), 5 Days) of the same molecule?
A: 99.61 Area Percent

Q: And the “Area Percent” value ([3]; 40° C./75% RH (Closed), 1 Week)?
A: 99.05 Area Percent

Q: And the “Area Percent” value ([3]; 40° C./75% RH (Closed), 2 Weeks)?
A: 97.90 Area Percent

Q: And the “Area Percent” value ([3]; 40° C./75% RH (Closed), 5 Days)?
A: 99.20 Area Percent

Q: And the “Area Percent” value ([3]; 40° C./75% RH (Open), 1 Week)?
A: 98.76 Area Percent

Q: What about the “Area Percent” value ([3]; 40° C./75% RH (Open), 2 Weeks) of the same molecule?
A: 96.90 Area Percent

Q: And the “Area Percent” value ([3]; 40° C./75% RH (Open), 5 Days)?
A: 98.97 Area Percent

Q: What about the “Area Percent” value ([3]; 60° C., 1 Week) of the same molecule?
A: 99.70 Area Percent

Q: And the “Area Percent” value ([3]; 60° C., 2 Weeks)?
A: 99.73 Area Percent

Q: What about the “Area Percent” value ([3]; 60° C., 5 Days) of the same molecule?
A: 99.70 Area Percent

Q: What about the “Area Percent” value ([3]; HIL/UV (Controlled), 1 Week) of the same molecule?
A: 99.64 Area Percent

Q: What about the “Area Percent” value ([3]; HIL/UV (Controlled), 2 Weeks) of the same molecule?
A: 99.68 Area Percent

Q: What about the “Area Percent” value ([3]; HIL/UV (Controlled), 5 Days) of the same molecule?
A: 99.60 Area Percent

Q: What about the “Area Percent” value ([3]; HIL/UV (Exposed), 1 Week) of the same molecule?
A: 98.68 Area Percent

Q: What about the “Area Percent” value ([3]; HIL/UV (Exposed), 2 Weeks) of the same molecule?
A: 99.68 Area Percent

Q: What about the “Area Percent” value ([3]; HIL/UV (Exposed), 5 Days) of the same molecule?
A: 99.61 Area Percent

Q: What about the “Area Percent” value ([3]; Initial) of the same molecule?
A: 99.56 Area Percent

Q: For `CC(C)O.C[C@@H](c1nc(-c2ccc(C#N)cc2)cs1)[C@@](Cn1cncn1)(OCOP(=O)(O)O)c1ccc(F)cc1F.NCCCC[C@H](N)C(=O)O` [Example 5, ((2R,3R)-3-(4-(4-cyanophenyl)thiazol-2-yl)-2-(2,4-difluorophenyl)-1-(1H-1,2,4-triazol-1-yl)butan-2-yloxy)methyl dihydrogen phosphate mono-lysine salt isopropyl alcohol solvate], which “weight change for adsorption” value [1] is on record?
A: < 0.5%
